What all share (test): Bliss interaction score (quartile over a dose matrix) (fitness difference); higher = more antagonism (negative = synergy)
One assay has as its system S. aureus DSM 20231. Summed up: (§1)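 Quartiles of the Bliss score were taken over technical, biological and donor/recipient replicates. That score is observed fitness minus the product of the single-drug fitness values, which were inferred from combination data. Fitness itself is OD595 at entry into stationary phase divided by the plate's robust no-drug mean, with a cap at 1.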

In a further assay the test system is B. subtilis 168. The procedure, abridged:
as §1

A further assay concerns S. pneumoniae D39V. Summed up: as §1
In the next assay the test system is S. aureus Newman. The procedure, abridged: as §1

Results on 15 compounds are retold here after the supplement of paper PMC10627819.
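Note: first quartile when negative (synergy) and third quartile when positive (antagonism).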

Take `CO/N=C(\C(=O)N[C@@H]1C(=O)N2C(C(=O)O)=C(COC(N)=O)CS[C@H]12)c1ccco1` [Cefuroxime] + CO[C@@]12[C@H](COC(N)=O)C3=C(C(=O)C(C)=C(N)C3=O)N1C[C@@H]1N[C@@H]12 [MitomycinC]: the Bliss interaction score in the assay with S. aureus DSM 20231 is -0.0745; in the assay on B. subtilis 168, -0.211; with S. pneumoniae D39V, 0.0599; with S. aureus Newman it was -0.0903.

`CO/N=C(\C(=O)N[C@@H]1C(=O)N2C(C(=O)O)=C(COC(N)=O)CS[C@H]12)c1ccco1` [Cefuroxime] + CO[C@H]1/C=C/O[C@@]2(C)Oc3c(C)c(O)c4c(O)c(c(/C=N/N5CCN(C)CC5)c(O)c4c3C2=O)NC(=O)/C(C)=C\C=C\[C@H](C)[C@H](O)[C@@H](C)[C@@H](O)[C@@H](C)[C@H](OC(C)=O)[C@@H]1C [Rifampicin]: the Bliss interaction score in the assay with S. aureus DSM 20231 worked out at 0.109; in the assay on B. subtilis 168, 0.0741; in the assay with S. pneumoniae D39V it was 0.102; with S. aureus Newman, 0.0557.

As to `CO/N=C(\C(=O)N[C@@H]1C(=O)N2C(C(=O)O)=C(COC(N)=O)CS[C@H]12)c1ccco1` [Cefuroxime] + C[C@@H](O)[C@H]1C(=O)N2C(C(=O)O)=C(SCCNC=N)C[C@H]12 [Imipenem], the Bliss interaction score is 0.145 in the assay on S. aureus DSM 20231, 0.0678 with B. subtilis 168, 0.0481 with S. pneumoniae D39V and -0.0353 in the assay with S. aureus Newman.

Consider `CO/N=C(\C(=O)N[C@@H]1C(=O)N2C(C(=O)O)=C(COC(N)=O)CS[C@H]12)c1ccco1` [Cefuroxime] + Clc1ccc(COC(Cn2ccnc2)c2ccc(Cl)cc2Cl)c(Cl)c1 [Miconazole], for which the Bliss interaction score in the assay with S. aureus DSM 20231 is 0.112; in the assay on B. subtilis 168 it was 0.0653; with S. pneumoniae D39V, 0.0717; in the assay on S. aureus Newman, 0.025.

`CO/N=C(\C(=O)N[C@@H]1C(=O)N2C(C(=O)O)=C(COC(N)=O)CS[C@H]12)c1ccco1` [Cefuroxime] + N[C@@H]1CONC1=O [CycloserineD]: the Bliss interaction score with S. aureus DSM 20231 was 0.114; with B. subtilis 168 it was -0.0514; with S. pneumoniae D39V, 0.0839; with S. aureus Newman it was -0.0647.

As for `CO/N=C(\C(=O)N[C@@H]1C(=O)N2C(C(=O)O)=C(COC(N)=O)CS[C@H]12)c1ccco1` [Cefuroxime] + O=C1CN(/N=C/c2ccc([N+](=O)[O-])o2)C(=O)N1 [Nitrofurantoin], the Bliss interaction score in the assay on S. aureus DSM 20231 was 0.0612; in the assay with B. subtilis 168, -0.104; in the assay with S. pneumoniae D39V, 0.0749; in the assay with S. aureus Newman, -0.0317.

In the case of `CO/N=C(\C(=O)N[C@@H]1C(=O)N2C(C(=O)O)=C(COC(N)=O)CS[C@H]12)c1ccco1` [Cefuroxime] + O=C(N[C@H](CO)[C@H](O)c1ccc([N+](=O)[O-])cc1)C(Cl)Cl [Chloramphenicol], the Bliss interaction score is -0.341 in the assay with S. aureus DSM 20231, 0.162 in the assay on B. subtilis 168, -0.0245 in the assay on S. pneumoniae D39V and -0.0407 in the assay with S. aureus Newman.

As for `CO/N=C(\C(=O)N[C@@H]1C(=O)N2C(C(=O)O)=C(COC(N)=O)CS[C@H]12)c1ccco1` [Cefuroxime] + O=C(O)c1cn(C2CC2)c2cc(N3CCNCC3)c(F)cc2c1=O [Ciprofloxacin], the Bliss interaction score in the assay on S. aureus DSM 20231 was -0.31; in the assay on B. subtilis 168, -0.171; with S. pneumoniae D39V, -0.0381; with S. aureus Newman, -0.0563.

`CO/N=C(\C(=O)N[C@@H]1C(=O)N2C(C(=O)O)=C(COC(N)=O)CS[C@H]12)c1ccco1` [Cefuroxime] + Oc1cc(Cl)ccc1Oc1ccc(Cl)cc1Cl [Triclosan]: the Bliss interaction score with S. aureus DSM 20231 is 0.0932; with B. subtilis 168, 0.0538; with S. pneumoniae D39V, 0.0619; in the assay on S. aureus Newman, -0.0309.

As for `O=C(O)c1cn(C2CC2)c2cc(N3CCNCC3)c(F)cc2c1=O` [Ciprofloxacin] + CC1(C)S[C@@H]2[C@H](NC(=O)Cc3ccccc3)C(=O)N2[C@H]1C(=O)O [PenicillinG], the Bliss interaction score in the assay on S. aureus DSM 20231 is -0.0624; in the assay on B. subtilis 168, 0.0481; in the assay on S. pneumoniae D39V, 0.0662; in the assay on S. aureus Newman, -0.0565.

On to `O=C(O)c1cn(C2CC2)c2cc(N3CCNCC3)c(F)cc2c1=O` [Ciprofloxacin] + CC(=O)O[C@H]1C[C@@]2(C)[C@@H](C[C@@H](O)[C@H]3[C@@]4(C)CC[C@@H](O)[C@@H](C)[C@@H]4CC[C@@]32C)/C1=C(\CCC=C(C)C)C(=O)O [Fusidic acid], for which the Bliss interaction score with S. aureus DSM 20231 amounted to 0.04; with B. subtilis 168 it was 0.19; in the assay on S. pneumoniae D39V it was 0.0674; in the assay with S. aureus Newman, 0.0831.

As to `O=C(O)c1cn(C2CC2)c2cc(N3CCNCC3)c(F)cc2c1=O` [Ciprofloxacin] + CC[C@H]1OC(=O)[C@H](C)C(=O)[C@H](C)[C@@H](O[C@@H]2O[C@H](C)C[C@H](N(C)C)[C@H]2O)[C@](C)(OC)C[C@@H](C)C(=O)[C@H](C)[C@H]2N(CCCCn3cnc(-c4cccnc4)c3)C(=O)O[C@]12C [Telithromycin], the Bliss interaction score in the assay on S. aureus DSM 20231 turned out to be 0.0454; in the assay with B. subtilis 168, 0.149; in the assay with S. pneumoniae D39V it was 0.0763; with S. aureus Newman, 0.0334.

Regarding `O=C(O)c1cn(C2CC2)c2cc(N3CCNCC3)c(F)cc2c1=O` [Ciprofloxacin] + CC[C@H]1OC(=O)[C@H](C)[C@@H](O[C@H]2C[C@@](C)(OC)[C@@H](O)[C@H](C)O2)[C@H](C)[C@@H](O[C@@H]2O[C@H](C)C[C@H](N(C)C)[C@H]2O)[C@](C)(O)C[C@@H](C)C(=O)[C@H](C)[C@@H](O)[C@]1(C)O [Erythromycin], the Bliss interaction score with S. aureus DSM 20231 was 0.0597; in the assay on B. subtilis 168 it was 0.211; in the assay with S. pneumoniae D39V, 0.065; in the assay with S. aureus Newman, 0.0474.

For the compound `O=C(O)c1cn(C2CC2)c2cc(N3CCNCC3)c(F)cc2c1=O` [Ciprofloxacin] + CN(C)[C@@H]1C(O)=C(C(N)=O)C(=O)[C@@]2(O)C(O)=C3C(=O)c4c(O)ccc(Cl)c4[C@@](C)(O)[C@H]3C[C@@H]12 [Clortetracycline], the Bliss interaction score with S. aureus DSM 20231 is 0.104; with B. subtilis 168 it was 0.199; with S. pneumoniae D39V it was -0.035; in the assay on S. aureus Newman it was 0.119.

For the compound `O=C(O)c1cn(C2CC2)c2cc(N3CCNCC3)c(F)cc2c1=O` [Ciprofloxacin] + CN[C@H](CC(C)C)C(=O)N[C@H]1C(=O)N[C@@H](CC(N)=O)C(=O)N[C@H]2C(=O)N[C@H]3C(=O)N[C@H](C(=O)N[C@H](C(=O)O)c4cc(O)cc(O)c4-c4cc3ccc4O)[C@H](O[C@H]3C[C@](C)(N)[C@@H](O)[C@H](C)O3)c3ccc(c(Cl)c3)Oc3cc2cc(c3O[C@@H]2O[C@H](CO)[C@@H](O)[C@H](O)[C@H]2O[C@H]2C[C@](C)(NCc3ccc(-c4ccc(Cl)cc4)cc3)[C@@H](O)[C@H](C)O2)Oc2ccc(cc2Cl)[C@H]1O [Oritavancin], the Bliss interaction score in the assay on S. aureus DSM 20231 is -0.0468; in the assay with B. subtilis 168, -0.0274; with S. pneumoniae D39V it was 0.0622; with S. aureus Newman it was -0.0474.
